Source: ChEMBL document CHEMBL3352244, “Synthesis and biological activity of 5-(4-methoxyphenyl)-oxazole derivatives” (Bioorg Med Chem Lett, 2015)
Converted amounts (≈) assume the structure as drawn.

Experiments:
[1] = tested on: Caenorhabditis elegans; assay: Growth inhibition of adult Caenorhabditis elegans measured on day 3 by microscopy; type: functional; details: 72 h
[2] = tested on: Caenorhabditis elegans; assay: Inhibition of hatch of eggs newly spawned by adult Caenorhabditis elegans measured on day 3; type: functional; details: 72 h
[3] = tested on: Plasmodium falciparum; assay: Antimalarial activity against Plasmodium falciparum K1 after 72 hrs by parasite LDH assay; type: functional, organism-based; details: K1, 72 h
[4] = tested on: HeLa; assay: Cytotoxic activity against human HeLa cells after 48 hrs by WST8 assay; type: functional, cell-based
[5] = tested on: Escherichia coli; assay: Antimicrobial activity against Escherichia coli incubated at 37 degC for 24 hrs; type: functional, organism-based
[6] = tested on: Pyricularia oryzae; assay: Antimicrobial activity against Magnaporthe oryzae incubated at 28 degC for 48 hrs; type: functional, organism-based
[7] = target: T1, D-amino-acid oxidase (Caenorhabditis elegans, UniProt Q95XG9); assay: Inhibition of Caenorhabditis elegans DAO incubated for 10 mins
T1 sequence (Q95XG9 whole entry): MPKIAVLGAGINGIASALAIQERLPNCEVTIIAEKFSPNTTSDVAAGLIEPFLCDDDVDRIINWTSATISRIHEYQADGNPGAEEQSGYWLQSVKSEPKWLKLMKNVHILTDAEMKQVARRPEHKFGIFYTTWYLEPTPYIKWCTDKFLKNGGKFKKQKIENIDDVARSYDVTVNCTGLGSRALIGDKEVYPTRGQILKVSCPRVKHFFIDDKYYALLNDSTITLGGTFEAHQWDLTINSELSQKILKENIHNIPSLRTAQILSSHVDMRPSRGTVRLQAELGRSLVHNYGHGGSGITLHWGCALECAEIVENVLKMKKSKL

[8] = tested on: Aspergillus fumigatus; assay: Antimicrobial activity against Aspergillus fumigatus incubated at 28 degC for 24 hrs; type: functional, organism-based
[9] = tested on: Staphylococcus aureus; assay: Antimicrobial activity against Staphylococcus aureus incubated at 37 degC for 24 hrs; type: functional, organism-based
[10] = target: T2, D-aspartate oxidase 3 (Caenorhabditis elegans, UniProt O01739); assay: Inhibition of Caenorhabditis elegans DDO3 incubated for 10 mins
T2 sequence (O01739 whole entry): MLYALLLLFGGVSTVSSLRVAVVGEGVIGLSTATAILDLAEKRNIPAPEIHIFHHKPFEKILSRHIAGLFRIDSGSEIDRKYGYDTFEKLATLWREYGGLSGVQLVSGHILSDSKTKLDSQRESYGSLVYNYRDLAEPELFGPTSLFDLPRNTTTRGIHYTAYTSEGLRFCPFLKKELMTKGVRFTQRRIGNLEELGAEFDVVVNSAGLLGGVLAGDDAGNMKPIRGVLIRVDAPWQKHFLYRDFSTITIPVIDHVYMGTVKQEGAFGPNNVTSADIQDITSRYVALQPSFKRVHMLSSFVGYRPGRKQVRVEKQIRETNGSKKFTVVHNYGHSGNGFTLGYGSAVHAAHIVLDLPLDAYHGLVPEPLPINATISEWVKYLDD

[11] = tested on: Candida albicans; assay: Antimicrobial activity against Candida albicans incubated at 28 degC for 24 hrs; type: functional, organism-based
[12] = Cytotoxic activity against human HL60 cells after 48 hrs by WST8 assay; type: functional, cell-based; details: HL-60, 48 h
[13] = tested on: Caenorhabditis elegans; assay: Inhibition of hatch of eggs newly spawned by adult Caenorhabditis elegans at 17 uM measured on day 3; type: functional; details: 72 h

| Structure (SMILES) | MIC [1] [µM] | MIC [2] [µM] | also measured |
| --- | --- | --- | --- |
| COC(=O)c1ccc(-c2cnco2)cc1 | > 100 | > 100 | – |
| COc1ccc(-c2ncco2)cc1 | 100 (≈ 17.5 µg/mL) | > 100 | – |
| CC(=O)Oc1ccc(-c2cnco2)cc1 | > 100 | > 100 | – |
| COc1ccc(-c2cnco2)cc1C(=O)O | > 100 | > 100 | – |
| COc1ccc(-c2c[nH]cn2)cc1 | > 100 | > 100 | – |
| Cc1ccc(-c2cnco2)cc1 | > 100 | > 100 | – |
| COc1ccccc1-c1cnco1 | > 100 | > 100 | – |
| CCc1ccc(-c2cnco2)cc1 | > 100 | > 100 | – |
| COc1ccc(-c2cnc(-c3ccc(C(=O)O)cc3)o2)cc1 | > 100 | > 100 | – |
| COc1ccc(-c2cocn2)cc1 | > 100 | > 100 | – |
| O=C(O)c1ccc(-c2cnco2)cc1 | > 100 | > 100 | – |
| Oc1ccc(-c2cnco2)cc1 | > 100 | > 100 | EC50 [3]: > 100 µM; EC50 [4]: 51 µM; EC50 [5]: > 100 µM; EC50 [6]: 15 µM; EC50 [7]: > 100 µM; EC50 [8]: > 100 µM; EC50 [9]: > 100 µM; EC50 [10]: > 100 µM; EC50 [11]: > 100 µM; EC50 [12]: > 100 µM |
| CN(C)c1ccc(-c2cnco2)cc1 | 50 (≈ 9.41 µg/mL) | > 100 | – |
| COc1ccc(-c2cnco2)cc1 | 34 (≈ 5.96 µg/mL) | 17 (≈ 2.98 µg/mL) | EC50 [3]: > 100 µM; EC50 [4]: 30 µM; EC50 [5]: > 100 µM; inhibition at 17 µM [13]: 100%; EC50 [6]: 4 µM; EC50 [7]: > 100 µM; EC50 [8]: > 100 µM; EC50 [9]: > 100 µM; EC50 [10]: > 100 µM; EC50 [11]: > 100 µM; EC50 [12]: > 100 µM |
| CCOC(=O)c1ccc(-c2ncc(-c3ccc(OC)cc3)o2)cc1 | > 100 | > 100 | – |
| COC(=O)c1cc(-c2cnco2)ccc1OC | > 100 | > 100 | – |
| COc1ccc(-c2cncs2)cc1 | 50 (≈ 9.56 µg/mL) | > 100 | – |
| N#Cc1ccc(-c2cnco2)cc1 | > 100 | 100 (≈ 17 µg/mL) | – |
| COc1cccc(-c2cnco2)c1 | > 100 | > 100 | – |
| c1ccc(-c2cnco2)cc1 | > 100 | > 100 | – |
